Consider four compounds from patent publication US7387895B2, “Monoclonal antibody specific for PPAR gamma, hydridoma cell line producing the same, and method for detecting regulator related to diseases, including inflammation, cancer and metabolic diseases, using the same” (Korea Research Institute of Bioscience and Biotechnology, priority 2003, dated 2008).

Entries after “also recorded” stand apart in the source; their conditions may differ.

One assay deals with T1, PPAR gamma (Homo sapiens, UniProt P37231).
T1 sequence (P37231 1-505): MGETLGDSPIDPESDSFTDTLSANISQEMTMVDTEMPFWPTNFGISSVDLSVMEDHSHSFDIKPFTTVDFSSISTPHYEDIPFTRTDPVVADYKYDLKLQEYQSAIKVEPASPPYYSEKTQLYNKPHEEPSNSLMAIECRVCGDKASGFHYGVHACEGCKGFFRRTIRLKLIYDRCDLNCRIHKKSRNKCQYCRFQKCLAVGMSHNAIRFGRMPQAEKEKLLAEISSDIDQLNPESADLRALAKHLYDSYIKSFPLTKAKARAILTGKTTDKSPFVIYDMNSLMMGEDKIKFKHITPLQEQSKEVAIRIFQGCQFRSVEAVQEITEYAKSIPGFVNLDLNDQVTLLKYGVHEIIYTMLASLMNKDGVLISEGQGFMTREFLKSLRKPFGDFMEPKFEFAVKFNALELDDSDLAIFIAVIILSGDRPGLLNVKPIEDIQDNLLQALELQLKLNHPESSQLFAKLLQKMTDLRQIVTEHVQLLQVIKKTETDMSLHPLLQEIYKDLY
To be noted: components of oxLDL; cited from earlier work.

A further assay concerns NF-κB. To be noted: cited from earlier work.
Another assay has as its system cytokine production. To be noted: cited from earlier work.
For assay [1], the target named is T2, binding between SRC-1 and PPAR gamma2 proteins (Homo sapiens, UniProt P37231).
T2 construct: made in house; host or cells: E. coli (pGEX4T-1/PPARgamma2, KCTC 10190BP; pET28a/SRC-1, KCTC 10191BP)
T2 sequence (Q15788 whole entry partner, one chain of several): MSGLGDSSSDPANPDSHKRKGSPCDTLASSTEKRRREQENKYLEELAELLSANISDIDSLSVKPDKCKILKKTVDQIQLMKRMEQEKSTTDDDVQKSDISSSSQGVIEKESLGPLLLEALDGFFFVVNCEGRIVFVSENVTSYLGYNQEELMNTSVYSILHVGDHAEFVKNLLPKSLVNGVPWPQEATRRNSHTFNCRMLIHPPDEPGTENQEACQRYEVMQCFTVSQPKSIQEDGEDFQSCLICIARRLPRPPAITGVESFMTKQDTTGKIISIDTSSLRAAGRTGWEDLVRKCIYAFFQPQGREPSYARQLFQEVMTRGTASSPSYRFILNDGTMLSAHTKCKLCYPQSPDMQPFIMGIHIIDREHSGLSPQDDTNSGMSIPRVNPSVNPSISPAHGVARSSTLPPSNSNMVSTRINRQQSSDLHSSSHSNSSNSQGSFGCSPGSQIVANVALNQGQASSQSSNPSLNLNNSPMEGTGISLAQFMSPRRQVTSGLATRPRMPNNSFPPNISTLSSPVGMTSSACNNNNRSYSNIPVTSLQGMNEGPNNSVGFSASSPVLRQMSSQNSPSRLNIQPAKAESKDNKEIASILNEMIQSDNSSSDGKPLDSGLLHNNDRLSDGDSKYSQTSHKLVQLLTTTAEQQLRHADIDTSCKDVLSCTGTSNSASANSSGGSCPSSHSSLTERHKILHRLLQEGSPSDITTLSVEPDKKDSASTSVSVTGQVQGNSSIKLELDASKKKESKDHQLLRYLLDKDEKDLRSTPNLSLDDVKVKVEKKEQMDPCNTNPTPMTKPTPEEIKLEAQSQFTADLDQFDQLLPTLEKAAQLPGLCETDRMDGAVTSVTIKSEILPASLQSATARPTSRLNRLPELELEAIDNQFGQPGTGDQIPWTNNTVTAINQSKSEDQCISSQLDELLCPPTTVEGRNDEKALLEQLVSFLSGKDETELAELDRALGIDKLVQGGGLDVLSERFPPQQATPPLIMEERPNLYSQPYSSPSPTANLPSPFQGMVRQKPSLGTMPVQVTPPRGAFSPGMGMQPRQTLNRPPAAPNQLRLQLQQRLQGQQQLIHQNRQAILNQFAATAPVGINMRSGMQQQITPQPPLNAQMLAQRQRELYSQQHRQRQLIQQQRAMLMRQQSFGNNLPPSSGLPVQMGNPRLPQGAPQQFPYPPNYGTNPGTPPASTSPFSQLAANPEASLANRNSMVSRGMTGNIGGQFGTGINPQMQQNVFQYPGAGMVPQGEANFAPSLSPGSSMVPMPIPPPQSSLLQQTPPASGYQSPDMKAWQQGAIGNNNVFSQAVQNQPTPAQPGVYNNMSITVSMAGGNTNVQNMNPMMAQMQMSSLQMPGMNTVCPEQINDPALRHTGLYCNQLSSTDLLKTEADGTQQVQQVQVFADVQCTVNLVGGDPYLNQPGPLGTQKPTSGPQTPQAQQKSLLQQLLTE
The experiment in a line: ELISA of binding between SRC-1 and PPAR gamma2. To be noted: 8 μg/ml SRC-1 coated, GST-PPAR gamma2 lysate diluted 64-fold, ligand at different concentrations, FIG. 7B. It is filed as biochemical. The protocol:
To examine the effect of PPAR gamma2 protein concentration on the binding between SRC-1 and PPAR gamma2 proteins, the following test was conducted. […] Also, this procedure was repeated three times, and a GST-fused protein which had not been bound to SRC-1 protein was used as a control group. […] Furthermore, to examine the effect of PPAR gamma2 ligand concentration on the binding between SRC-1 and PPAR gamma2 proteins, the following test was conducted. 8 μg/ml SRC-1 was coated on a plate, and E. coli lysate was diluted 64-fold and added to the plate. Then, indomethacin, a PPAR gamma2 ligand, was added to the plate at a different concentration.
His-SRC-1 protein was diluted with 0.1 M sodium carbonate buffer (pH 9.6) to a concentration of about 800 ng/well. 100 μl of the protein dilution was loaded into each well of an ELISA plate, and coated on the plate overnight at 4° C. The coated plate was washed three times with PBS (containing 0.05% Tween®-20), and added with 3% skimmed-PBST solution and left to stand overnight at 4° C. or for 2 hours at room temperature. A soluble fraction of GST-fused PPAR gamma2 was diluted […], and 50 μl of the dilution was added to each well of the plate. Indomethacin, a PPAR gamma2 agonist, was added at 1 μM, 10 μM and 100 μM. […]

`CCCCC/C=C\C=C\C(O)CCCCCCCC(=O)O` (stereo not drawn) [9-HODE]: the “PPAR gamma agonist activity” value on PPAR gamma was “PPAR gamma agonists”. Consider `CCCCCC(O)/C=C/C=C\CCCCCCCC(=O)O` (stereo not drawn) [13-HODE], for which the “PPAR gamma agonist activity” value on PPAR gamma is “PPAR gamma agonists”.

For `CCCCC/C=C/C=C1/C(=O)C=C[C@@H]1C/C=C\CCCC(=O)O` [15d-PGJ2], in the assay on NF-κB, the NF-κB activity result is “inhibit NF-κB activity”. In addition, the “cytokine production in embryonic stem cells” value in the assay on cytokine production (PPAR gamma+/+, +/- or -/- embryonic stem cells) is given as “inhibited cytokine production”. Moreover, the “cytokine production of monocytes or macrophages in vitro” value with cytokine production (monocytes or macrophages) was “the most powerful inhibitor”. `COc1ccc2c(c1)c(CC(=O)O)c(C)n2C(=O)c1ccc(Cl)cc1` [indomethacin]: the “binding between SRC-1 and PPAR gamma2” value in assay [1] is “dependent on the concentration of indomethacin; also recorded: increased”.
